From patent publication US9944618B2, “Inhibiting neurotransmitter reuptake” (Mayo Foundation for Medical Education and Research, priority 2013, dated 2018)
Like-named read-outs stand apart in the source and are kept apart here.

Tests used:
CYP2D6 = CYP2D6 (Homo sapiens (Human), UniProt P10635); assay: Cytochrome P450 inhibition assay, recombinant CYP2D6 (MAMC substrate); type: in vitro ADME; details: recombinant enzyme
Procedure: Recombinant enzymes, 3A4 and 2D6, generated using the ABL yeast expression system were used. […] The assay mixture also included K2HPO4 (pH 7.4; conc. 0.1 M) and NADPH (conc. 1 mM). The incubation time was 30 minutes, and the reference inhibitor was A-naphthoflavone. For CYP2D6, the enzyme amount was 2 pmol per well, and the substrate (7-methoxy-4-(aminomethyl)-coumarin; MAMC) was used at 20 μM. The assay mixture also included K2HPO4 (pH 7.4; conc. 0.1 M) and NADPH (conc. 0.06 mM). The incubation time was 35 minutes, and the reference inhibitor was quinidine.
Briefly, 0.6 μL of serially diluted compound was added to 75 μL water. 10 μL of diluted compound in water was then added to each assay plate. 20 μL of a K2HPO4, enzyme, and substrate mixture was added. After 10 minutes of room temperature pre-incubation, 10 μL of NADPH was added, and the plates were placed at 37° C. for 30 or 35 minutes depending on the enzyme being tested. After the incubation was complete, 20 μL of 0.1% Tris/ACN was added to the plate. The plate was read on a FluorStar fluorescence plate reader.

[1] = molecular target: human dopamine transporter (Homo sapiens (Human), UniProt Q01959); assay: Human DAT (dopamine transporter) uptake assay; type: cell-based; details: read-out: hDAT Ki
Chain of human dopamine transporter (Q01959 whole entry): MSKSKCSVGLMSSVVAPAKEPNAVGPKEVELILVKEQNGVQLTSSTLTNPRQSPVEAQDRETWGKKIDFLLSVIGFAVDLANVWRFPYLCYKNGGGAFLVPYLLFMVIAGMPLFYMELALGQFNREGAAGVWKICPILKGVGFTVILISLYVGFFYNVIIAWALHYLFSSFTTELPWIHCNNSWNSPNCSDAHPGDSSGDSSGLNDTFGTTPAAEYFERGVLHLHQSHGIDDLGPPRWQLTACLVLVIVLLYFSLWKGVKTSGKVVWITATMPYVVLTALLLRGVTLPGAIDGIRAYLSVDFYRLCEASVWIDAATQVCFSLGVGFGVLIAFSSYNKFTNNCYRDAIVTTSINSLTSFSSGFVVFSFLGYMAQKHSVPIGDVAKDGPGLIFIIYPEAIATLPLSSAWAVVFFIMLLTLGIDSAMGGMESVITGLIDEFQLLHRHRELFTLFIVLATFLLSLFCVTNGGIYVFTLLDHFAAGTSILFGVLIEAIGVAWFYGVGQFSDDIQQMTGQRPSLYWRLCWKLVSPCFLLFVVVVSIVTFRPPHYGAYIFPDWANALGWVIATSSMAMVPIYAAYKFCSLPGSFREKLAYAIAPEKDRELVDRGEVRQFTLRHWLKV
Outline: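 Uptake inhibition was measured in HEK293F cells transfected with human DAT, plated at ~60,000 cells/well and settled ≥3 h at 37 °C. Compounds came from 10 mM DMSO stocks. Read-out was uptake of a fluorescent neurotransmitter transporter dye in HBSS with 0.02 M HEPES, with dye level given as % of vendor reconstitution; n=3.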

[2] = pKa of basic centres (Table 1); type: physicochemical
[3] = molecular target: human norepinephrine transporter (Homo sapiens (Human), UniProt P23975); assay: Human NET (norepinephrine transporter) uptake assay; type: cell-based; details: read-out: hNET Ki
Chain of human norepinephrine transporter (P23975 whole entry): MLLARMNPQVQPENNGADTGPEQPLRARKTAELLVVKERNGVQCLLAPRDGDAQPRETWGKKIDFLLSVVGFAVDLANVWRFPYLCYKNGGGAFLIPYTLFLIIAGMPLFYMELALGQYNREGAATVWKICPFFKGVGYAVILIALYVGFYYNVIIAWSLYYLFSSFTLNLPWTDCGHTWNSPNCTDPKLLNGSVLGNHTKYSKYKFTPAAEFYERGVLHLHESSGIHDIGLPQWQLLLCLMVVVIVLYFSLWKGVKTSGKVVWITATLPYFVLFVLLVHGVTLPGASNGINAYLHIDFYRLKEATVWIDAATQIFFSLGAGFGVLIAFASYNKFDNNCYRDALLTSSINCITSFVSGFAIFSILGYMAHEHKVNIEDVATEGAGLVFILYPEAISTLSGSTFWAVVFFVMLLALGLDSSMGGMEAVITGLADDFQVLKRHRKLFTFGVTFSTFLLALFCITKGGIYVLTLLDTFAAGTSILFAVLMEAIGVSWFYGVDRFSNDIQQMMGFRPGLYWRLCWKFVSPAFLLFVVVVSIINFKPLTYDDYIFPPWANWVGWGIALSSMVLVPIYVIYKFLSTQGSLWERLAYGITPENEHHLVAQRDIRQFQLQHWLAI
Outline: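 HEK293F cells transfected with human NET were thawed, plated at about 60,000 cells/well and held at 37 °C for at least 3 h. Compounds came from 10 mM DMSO stocks, with nomifensine as control, in 1×HBSS/0.02 M HEPES. Uptake was followed with a neurotransmitter transporter dye, dosed as % of vendor reconstitution, in triplicate.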

CYP3A4 = CYP3A4 (Homo sapiens (Human), UniProt P08684); assay: Cytochrome P450 inhibition assay, recombinant CYP3A4 (BFC substrate); type: in vitro ADME; details: recombinant enzyme
Chain of CYP3A4 (P08684 whole entry): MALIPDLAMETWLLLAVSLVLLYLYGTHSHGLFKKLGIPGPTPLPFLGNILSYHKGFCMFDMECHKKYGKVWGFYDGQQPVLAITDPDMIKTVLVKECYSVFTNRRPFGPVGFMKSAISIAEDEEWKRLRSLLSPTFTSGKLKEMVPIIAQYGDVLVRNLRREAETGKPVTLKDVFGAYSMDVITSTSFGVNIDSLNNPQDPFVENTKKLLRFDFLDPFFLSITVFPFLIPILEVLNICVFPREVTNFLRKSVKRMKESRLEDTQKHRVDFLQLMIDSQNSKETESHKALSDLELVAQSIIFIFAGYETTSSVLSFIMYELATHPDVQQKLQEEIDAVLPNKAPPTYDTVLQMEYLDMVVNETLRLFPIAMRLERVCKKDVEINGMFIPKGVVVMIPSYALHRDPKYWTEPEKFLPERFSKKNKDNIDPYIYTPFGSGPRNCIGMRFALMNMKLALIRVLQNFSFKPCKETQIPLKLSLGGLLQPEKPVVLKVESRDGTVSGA

hERG = hERG (Homo sapiens (Human), UniProt Q12809); assay: Human ERG (hERG) assay, hERG currents in hERG-expressing CHO cells; type: cell-based; details: hERG-expressing CHO cells
Chain of hERG (Q12809 whole entry): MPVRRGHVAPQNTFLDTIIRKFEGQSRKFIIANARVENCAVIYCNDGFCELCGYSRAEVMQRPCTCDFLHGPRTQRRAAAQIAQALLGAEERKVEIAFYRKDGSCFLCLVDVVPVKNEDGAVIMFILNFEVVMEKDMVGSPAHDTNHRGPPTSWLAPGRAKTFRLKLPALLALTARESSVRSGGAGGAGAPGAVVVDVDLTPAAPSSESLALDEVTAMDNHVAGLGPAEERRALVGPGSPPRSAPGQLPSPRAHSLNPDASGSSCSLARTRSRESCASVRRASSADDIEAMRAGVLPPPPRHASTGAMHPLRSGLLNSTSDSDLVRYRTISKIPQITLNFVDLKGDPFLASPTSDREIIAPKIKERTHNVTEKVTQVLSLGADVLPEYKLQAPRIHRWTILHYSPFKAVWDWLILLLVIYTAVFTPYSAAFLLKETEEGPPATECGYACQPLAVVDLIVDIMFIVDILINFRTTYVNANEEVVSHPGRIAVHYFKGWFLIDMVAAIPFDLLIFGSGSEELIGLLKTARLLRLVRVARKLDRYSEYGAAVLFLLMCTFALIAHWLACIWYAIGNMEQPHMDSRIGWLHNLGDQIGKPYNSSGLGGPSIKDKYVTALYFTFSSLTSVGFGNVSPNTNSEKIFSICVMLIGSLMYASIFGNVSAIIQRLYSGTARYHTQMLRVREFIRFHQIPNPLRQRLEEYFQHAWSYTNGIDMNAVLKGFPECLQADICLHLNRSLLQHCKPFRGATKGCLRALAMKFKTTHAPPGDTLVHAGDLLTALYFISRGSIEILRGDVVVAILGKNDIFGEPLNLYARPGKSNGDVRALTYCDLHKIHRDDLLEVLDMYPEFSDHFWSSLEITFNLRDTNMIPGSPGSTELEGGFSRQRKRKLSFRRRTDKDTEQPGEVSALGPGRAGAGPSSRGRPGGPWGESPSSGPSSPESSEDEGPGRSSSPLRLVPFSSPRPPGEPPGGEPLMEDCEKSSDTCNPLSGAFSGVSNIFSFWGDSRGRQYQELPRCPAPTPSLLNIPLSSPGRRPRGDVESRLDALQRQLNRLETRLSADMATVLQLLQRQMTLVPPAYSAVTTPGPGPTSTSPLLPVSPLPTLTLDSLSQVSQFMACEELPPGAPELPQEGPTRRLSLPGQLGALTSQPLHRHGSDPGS
Text: The voltage-dependent potassium channel encoded by the human ether-a-go-go-related gene (hERG) is believed to play a key role in repolarisation of the ventricular cardiac action potential. Changes in its activity, caused either by inherited mutations of the gene sequence or pharmacological modification, can lead to prolongation of action potential duration. This can lead to prolongation of the QT interval recorded in man on an electrocardiogram and to a potentially fatal cardiac arrhythmia known as Torsades de Pointes.
hERG currents were recorded from hERG-expressing CHO cells. The biophysical and pharmacological characterization of the hERG currents in these cells was performed.

[4] = molecular target: human serotonin transporter (Homo sapiens (Human), UniProt P31645); assay: Human SERT (serotonin transporter) uptake assay; type: cell-based; details: read-out: hSERT Ki
Chain of human serotonin transporter (P31645 whole entry): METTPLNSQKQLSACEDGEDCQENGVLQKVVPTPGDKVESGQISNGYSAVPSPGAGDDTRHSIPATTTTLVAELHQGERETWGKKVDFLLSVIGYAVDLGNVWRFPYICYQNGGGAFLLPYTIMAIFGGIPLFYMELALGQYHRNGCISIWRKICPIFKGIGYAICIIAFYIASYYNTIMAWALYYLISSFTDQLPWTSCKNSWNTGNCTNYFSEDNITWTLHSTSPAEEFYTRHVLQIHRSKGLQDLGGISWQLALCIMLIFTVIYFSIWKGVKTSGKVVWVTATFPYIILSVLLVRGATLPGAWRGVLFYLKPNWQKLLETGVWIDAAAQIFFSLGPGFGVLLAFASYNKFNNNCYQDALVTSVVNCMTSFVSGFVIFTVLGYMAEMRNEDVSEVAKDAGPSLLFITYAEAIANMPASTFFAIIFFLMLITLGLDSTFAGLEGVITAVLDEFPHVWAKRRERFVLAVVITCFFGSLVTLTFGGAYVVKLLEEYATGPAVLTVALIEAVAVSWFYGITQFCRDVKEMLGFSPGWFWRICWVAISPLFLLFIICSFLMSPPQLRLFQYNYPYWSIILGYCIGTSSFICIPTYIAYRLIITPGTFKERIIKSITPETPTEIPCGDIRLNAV
Outline: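 HEK293F cells transfected with human SERT, about 60,000 per well, settled for ≥3 h at 37° C before compound addition. Uptake was followed with a fluorescent transporter dye in HBSS with 0.02 M HEPES. Background came from 10 μM fluoxetine, nomifensine was the control, n=3.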

[5] = first base, e.g., an aliphatic primary, secondary, or tertiary amine, read-out: pKa (Base 1)
[6] = second base in the same molecule (if present), read-out: pKa (Base 2)
[7] = first base, e.g., an aliphatic primary, secondary, or tertiary amine

Chain of CYP2D6 (P10635 whole entry): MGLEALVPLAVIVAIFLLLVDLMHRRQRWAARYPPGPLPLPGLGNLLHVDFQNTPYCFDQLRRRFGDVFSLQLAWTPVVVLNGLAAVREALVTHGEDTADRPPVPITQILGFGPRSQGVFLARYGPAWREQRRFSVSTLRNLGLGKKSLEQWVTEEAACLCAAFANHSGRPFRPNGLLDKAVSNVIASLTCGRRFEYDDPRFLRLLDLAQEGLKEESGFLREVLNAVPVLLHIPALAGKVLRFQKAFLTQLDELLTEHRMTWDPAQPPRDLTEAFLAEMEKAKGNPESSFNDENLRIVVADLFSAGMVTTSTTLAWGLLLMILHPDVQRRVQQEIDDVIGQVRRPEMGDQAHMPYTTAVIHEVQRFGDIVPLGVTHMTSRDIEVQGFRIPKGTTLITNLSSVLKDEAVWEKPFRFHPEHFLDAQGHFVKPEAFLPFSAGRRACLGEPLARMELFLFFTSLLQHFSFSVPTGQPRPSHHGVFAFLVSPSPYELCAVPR

| Compound | IC50 (CYP2D6) [nM] | Ki [1] [nM] | pKa [2, 5] | Ki [3] [nM] | IC50 (CYP3A4) [nM] | Ki [4] [nM] | IC50 (hERG) [nM] | pKa [2, 6] | pKa (Base 1) [2, 7] |
| --- | --- | --- | --- | --- | --- | --- | --- | --- | --- |
| CNCC(Cc1cccs1)c1ccc2ccccc2c1 (racemic) [Compound 40] | 960 | 114 | 10 | 3.2 | 19000 | 3.3 | 4100 | – | – |
| CNC[C@H](c1ccc(Br)c(Cl)c1)[C@H](O)c1ccccc1 (racemic) [Compound 43] | 110 | 7.3 | 9.4 | 3.3 | 8100 | 19.7 | 7100 | – | – |
| CNC[C@H](c1ccc2ccccc2c1)[C@H](O)c1cccnc1 (racemic) [Compound 62] | 1000 | 45 | 9.6 | 6.5 | ≥ 20000 | 9.9 | 25000 | 5.1 | – |
| CNC[C@@H](c1ccc2ccccc2c1)[C@H](O)c1ccccn1 (racemic) [Compound 72] | 760 | 100 | 9.6 | 10.1 | ≥ 20000 | 27.6 | 33000 | 4.1 | – |
| CNC[C@H](c1ccc2ccccc2c1)[C@H](OC)c1ccc2c(c1)OCO2 (racemic) [Compound 136] | 190 | 64.5 | 9.7 | 37.4 | 3400 | 15.7 | 5400 | – | – |
| CNC[C@@H](c1ccc2ccccc2c1)[C@@H](O)c1ccc2c(c1)OCCO2 (racemic) [Compound 145] | 310 | 134 | 9.7 | 10.9 | 19000 | 9.4 | 11000 | – | – |
| CNCC(c1ccc2ccccc2c1)[C@H](CO)c1ccccc1 (single isomer, unassigned) [Compound 25] | 320 | 106 | 9.9 | 2.2 | – | 22.7 | 33000 | – | – |
| CCOC(=O)CO[C@H](c1ccccc1)[C@H](CNC)c1ccc2ccccc2c1 [Compound 35] | 320 | 70.8 | 9.6 | 2.8 | – | 3.7 | 13000 | – | – |
| CNCC(c1ccc(F)c(Cl)c1)[C@H](O)c1ccccc1 (stereo partly drawn) [Compound 73] | 790 | – | 9.3 | – | 20000 | – | 31000 | – | – |
| CNCC(Cc1ccccc1CO)c1ccc2ccccc2c1 (stereo not drawn) [Compound 90] | 590 | 86.2 | 10 | 22.6 | – | 25.4 | 12000 | – | – |
| CNC[C@H](C[C@H](O)c1ccccc1)c1ccc2ccccc2c1 [Compound 93] | 1200 | 137 | 10.1 | 29.5 | – | 1.1 | 13000 | – | – |
| CNCC(Cc1ccccc1OC)c1ccc2ccccc2c1 (stereo not drawn) [Compound 132] | – | 41.8 | – | 10.3 | – | 12.4 | 4700 | – | 10.1 |

Further compounds by falling Ki [1], results first:

| IC50 (CYP2D6) [nM] | Ki [1] [nM] | pKa [2, 5] | Ki [3] [nM] | IC50 (CYP3A4) [nM] | Ki [4] [nM] | Compound | IC50 (hERG) [nM] | pKa [2, 6] | pKa (Base 1) [2, 7] |
| --- | --- | --- | --- | --- | --- | --- | --- | --- | --- |
| 910 | 58.1 | 8.9 | 11.7 | ≥ 20000 | 21.4 | CN(C)C[C@H](c1ccc2ccccc2c1)[C@H](O)c1cccs1 (racemic) [Compound 135] | 3100 | – | – |
| 5700 | 44.7 | 8.2 | 12.4 | – | 3 | CN1CCO[C@H](c2ccccc2)[C@@H](c2ccc3ccccc3c2)C1 [Compound 77] | 4500 | – | – |
| 240 | 40.4 | 9.7 | 4.7 | 11000 | 6.7 | CNC[C@H](c1ccc2ccccc2c1)[C@H](O)c1ccccc1C (racemic) [Compound 56] | 22000 | – | – |
| 760 | 39.2 | 9.6 | 1.4 | – | 0.8 | CCNC(=O)CO[C@H](c1ccccc1)[C@H](CNC)c1ccc2ccccc2c1 [Compound 6] | 25000 | – | – |
| 650 | 37.2 | 9.6 | 2.4 | – | 1.1 | CCCNC(=O)CO[C@H](c1ccccc1)[C@H](CNC)c1ccc2ccccc2c1 [Compound 29] | 11000 | – | – |
| 800 | 36.5 | 9.6 | 3.8 | – | 2.9 | CNC[C@H](c1ccc2ccccc2c1)[C@H](OCC(=O)N1CCCC1)c1ccccc1 [Compound 50] | 17000 | – | – |
| 330 | 31.9 | 9.6 | 1.8 | – | 0.4 | CNC[C@H](c1ccc2ccccc2c1)[C@H](OCc1cc(C)on1)c1ccccc1 [Compound 18] | 4600 | – | – |
| – | 27 | 9.4 | 171 | – | 661 | CNC[C@@H](c1ccc(Cl)c(Cl)c1)[C@@H](O)c1ccccc1 [Compound 114] | 11000 | – | – |
| 1100 | 20.7 | 9.6 | 0.7 | – | 1.9 | CNC[C@H](c1ccc2ccccc2c1)[C@H](OCC(=O)NC)c1ccccc1 [Compound 1] | 33000 | – | – |
| – | 14.3 | 9.6 | 2.4 | – | 1 | CNC[C@H](c1ccc2ccccc2c1)[C@H](OCC(=O)N1CCC1)c1ccccc1 [Compound 30] | 29000 | – | – |
| 550 | 13.2 | 9.6 | 2.7 | – | 1.4 | CNC[C@H](c1ccc2ccccc2c1)[C@H](OCC(=O)N(C)C)c1ccccc1 [Compound 33] | 33000 | – | – |
| 410 | 9.8 | 9.4 | 4.5 | ≥ 20000 | 17.3 | CNCC(c1ccc(Cl)c(Cl)c1)[C@H](O)c1ccccc1 (mixture of isomers) [Compound 53] | 9800 | – | – |
| 5100 | 9.4 | 9.3 | 7.2 | – | 11.3 | c1ccc([C@@H]2OCCNC[C@H]2c2ccc3ccccc3c2)cc1 [Compound 64] | 20000 | – | – |
| 170 | 5.5 | – | 1 | – | 2.5 | CNCC(Cc1ccccc1CO)c1ccc2ccccc2c1 (stereo not drawn) [Compound 2] | 15000 | – | 10 |
